Legend:
RNA as a template = settings: cited from earlier work
HindIII-cut pT75 = experiment: Run-off transcription with 2′-OMe- or 2′-azido-NTPs on HindIII-cut pT75; format: biochemical
Experimental: (§1) RNAPs were prepared as described (Brieba, L G, and Sousa, R. Biochemistry, 39: 919-923, 2000). Transcription reactions were carried out for 30 min. at room temperature in 40 mM Tris-Cl, pH 8.0, 6 mM MgCl2, 10 mM NaCl, 2 mM spermidine, with templates at 10^−7 M and RNAPs at 2×10^−7 M. All NTPs were used at 0.5 mM, and transcripts were labeled by inclusion of 1% v/v 800 Ci/mM […] in the reaction. Modified NTPs were from Trilink Biotechnologies. Reactions were stopped by addition of an equal volume of 90% formamide, 50 mM EDTA, 0.01% xylene cyanol, resolved by electrophoresis in 20% acrylamide, 1% bis-acrylamide, 1×TBE gels, and visualized on a Molecular Dynamics Phosphorimager.
With the pPK5 template, UMP and CMP are not incorporated into the first 9 nt of RNA. Incorporation of non-canonical NMPs during synthesis of the first 9 nt of RNA is expected to cause greater reductions in run-off transcript synthesis because the RNA is readily released from the transcription complex during this initial phase of transcription. Therefore, if incorporation of a non-canonical NMP is slow, the RNA will usually dissociate before the NMP is incorporated. […] To see whether NMPs with bulky 2′-substituents could be incorporated during the initial phase of transcription a Hind-III linearized pT75 (Tabor, S. and Richardson, C. C., “A bacteriophage T7 RNA polymerase/promoter system for controlled exclusive expression of specific genes,” Proc. Natl. Acad. Sci. USA 82:1074-1078, 1985) was used. On this template, UMP is first incorporated at +14 while CMP is incorporated at +6 and +7. In reactions with 2′-OMe-UTP run-off transcript synthesis is reduced 11-fold, 5-fold, and <2-fold with the wild-type, and the Y639F, and Y639F/H784A mutants, respectively (FIG. 2c; lanes 2, 6, 10). However, in reactions with 2′-OMe-CTP run-off transcription is undetectable with the wild-type or Y639F enzymes (FIG. 2c; lanes 3, 4, 7, 8), and is reduced ˜700-fold with Y639F/H784A (FIG. 2c; lanes 11, 12).
Run-off transcript yields in reactions with HindIII-cut pT75 and 2′-azido-UTP are reduced 18-, 8.5-, and <2-fold with wild-type and Y639F and Y639F/H784 mutants, respectively (FIG. 2d; lanes 2, 6, 10), relative to reactions with 4 NTPs (FIG. 2d; lanes 1, 5, 9). In reactions with 2′-azido-CTP, or both 2′-azido-CTP and 2′-azido-UTP, run-off transcription is undetectable with the wild-type enzyme (FIG. 2d; lanes 3, 4), is reduced 65-fold with Y639F (FIG. 2d; lanes 7, 8), but is reduced only 7-fold with Y639F/H784A (FIG. 2d; lanes 11, 12).

T7 Control Template = experiment: Incorporation of Cy5-UTP or Cy5-dCTP into transcripts (A650/A260); format: biochemical; settings: FluoroLink Cy5-UTP or Cy5-dCTP in addition to UTP or CTP
Experimental: In separate experiments to evaluate the ability of the Y639F/H784A double mutant versus the Y639F single mutant of T7 RNAP to incorporate nucleoside triphosphates with substituents at other positions than the 2′-position of the sugar, in vitro transcription reactions are carried out with each mutant enzyme using a T7 Control Template from an AmpliScribe™ T7 High Yield Transcription Kit (EPICENTRE) and either FluoroLink™ Cy5-UTP or FluoroLink™ Cy5-dCTP (both from Amersham Biosciences) in the reaction mixture in addition to the corresponding canonical nucleotide, UTP or CTP. Following transcription, the product is precipitated with ammonium acetate and the relative amount of Cy5 dye in the transcripts are determined based on the A650/A260 absorption ratios.

Bgl II-cut pPK5 = experiment: Run-off transcription with 2′-OMe- or 2′-azido-NTPs on Bgl II-cut pPK5; format: biochemical
Experimental: as §1
The ability of the wild-type, Y639F and Y639F/H784A mutants to utilize 2′-OMe-UTP and 2′-OMe-CTP, and 2′-azido-UTP and 2′-azido-CTP in RNA synthesis was tested. On a Bgl II-cut pPK5 (Mentesanas, P. E., et al., “Characterization of Bacteriophage T7 RNA Polymerase Elongation Complexes,” J. Mol. Biol. 302:1049-1062, 2000) template in which CTP and UTP are first incorporated at +14 and +15, respectively, the wild-type enzyme can synthesize 34 nucleotide (nt) run-off transcripts in reactions in which UTP is replaced with 2′-OMe-UTP (FIG. 2a, lane 2) or in reactions in which CTP is replaced with 2′-OMe-CTP (FIG. 2a, lane 3). Relative to the reaction with 4 NTPs (FIG. 2a, lane 1), yields of run-off transcripts are reduced 6-fold and 21-fold in the 2′-OMe-UTP and 2′-OMe-CTP reactions, respectively. When both UTP and CTP are replaced with the corresponding 2′-OMe-NTPs, run-off transcription with the wild-type enzyme is undetectable (FIG. 2a, lane 4). Terminated transcripts are seen in these reactions at positions where 2′-OMe-UMP or 2′-OMe-CMP are incorporated (FIG. 2a, lanes 2-4). The Y639F mutation enhances utilization of the 2′-OMe-NTPs: relative to reactions with 4 NTPs (FIG. 2a, lane 5) runoff transcription with Y639F is reduced, respectively: 2-fold, 8-fold, and 55-fold in reactions with 2′-OMe-UTP, 2′-OMe-CTP, or both (FIG. 2a, lanes 6-8). With the Y639F/H784A double mutant the reduction in run-off transcript synthesis is <15% in reactions with 2′-OMe-UTP (FIG. 2a, lane 10), and only 3-fold and 6-fold in reactions with, respectively, 2′-OMe-CTP or both 2′-OMe-UTP and 2′-OMe-CTP (FIG. 2a, lanes 11, 12).
Identical experiments were carried out with 2′-azido-UTP or 2′-azido-CTP replacing UTP or CTP, respectively (FIG. 2b). With the wild-type enzyme, run-off transcription was reduced 15- and 50-fold in reactions with 2′-azido-UTP or 2′-azido-CTP, respectively (FIG. 2b; lanes 2, 3), and was undetectable in reactions with both 2′-azido-UTP and 2′-azido-CTP (FIG. 2b; lane 4). With Y639F, use of 2′-azido-UTP or 2′-azido-CTP reduced run-off transcription by 70% (FIG. 2b; lanes 6, 7) compared to reactions with 4 NTPs (FIG. 2b; lane 5), while use of both 2′-azido-UTP and 2′-azido-CTP reduced runoff transcription by 11-fold (FIG. 2b, lane 8). With Y639F/H784A use of a single azido-modified NTP reduced run-off transcription by only 40% (FIG. 2b; lanes 10, 11), while use of two 2′-azido-NTPs reduced it by 3-fold (FIG. 2b; lane 12).

[1] = even in Mn^2+ buffer; cited from earlier work

E. coli DNA-directed DNA polymerase I: E. coli DNA polymerase I
Increase in dNTP Km (RNA as a template): ~100 fold

Y639F/H784A: Y639F/H784A double mutant of T7 RNAP
Reduction of run-off transcription (HindIII-cut pT75; 2′-OMe-CTP): ~700 fold | Reduction of run-off transcript synthesis (HindIII-cut pT75; 2′-OMe-UTP): < 2 fold | Reduction of run-off transcription (HindIII-cut pT75; 2′-azido-CTP, or both 2′-azido-CTP and 2′-azido-UTP): 7 fold | Reduction of run-off transcript yields relative to 4 NTPs (HindIII-cut pT75; 2′-azido-UTP): < 2 fold | A650/A260 absorption ratio of transcription products compared to Y639F single mutant (T7 Control Template): significantly higher | Reduction of run-off transcript yield relative to 4 NTPs (Bgl II-cut pPK5; 2′-OMe-CTP replacing CTP): 3 fold | Reduction in run-off transcript synthesis (Bgl II-cut pPK5; 2′-OMe-UTP replacing UTP): < 15% | Reduction of run-off transcript yield relative to 4 NTPs (Bgl II-cut pPK5; both 2′-OMe-UTP and 2′-OMe-CTP): 6 fold | Reduction of run-off transcription (Bgl II-cut pPK5; both 2′-azido-UTP and 2′-azido-CTP): 3 fold | Reduction of run-off transcription (Bgl II-cut pPK5; single azido-modified NTP (2′-azido-UTP or 2′-azido-CTP)): 40%

B1: T7 DNAP: T7 DNA polymerase (protein, UniProt P00581 1-704, looked up)
DNA-directed DNA polymerase: MIVSDIEANALLESVTKFHCGVIYDYSTAEYVSYRPSDFGAYLDALEAEVARGGLIVFHNGHKYDVPALTKLAKLQLNREFHLPRENCIDTLVLSRLIHSNLKDTDMGLLRSGKLPGKRFGSHALEAWGYRLGEMKGEYKDDFKRMLEEQGEEYVDGMEWWNFNEEMMDYNVQDVVVTKALLEKLLSDKHYFPPEIDFTDVGYTTFWSESLEAVDIEHRAAWLLAKQERNGFPFDTKAIEELYVELAARRSELLRKLTETFGSWYQPKGGTEMFCHPRTGKPLPKYPRIKTPKVGGIFKKPKNKAQREGREPCELDTREYVAGAPYTPVEHVVFNPSSRDHIQKKLQEAGWVPTKYTDKGAPVVDDEVLEGVRVDDPEKQAAIDLIKEYLMIQKRIGQSAEGDKAWLRYVAEDGKIHGSVNPNGAVTGRATHAFPNLAQIPGVRSPYGEQCRAAFGAEHHLDGITGKPWVQAGIDASGLELRCLAHFMARFDNGEYAHEILNGDIHTKNQIAAELPTRDNAKTFIYGFLYGAGDEKIGQIVGAGKERGKELKKKFLENTPAIAALRESIQQTLVESSQWVAGEQQVKWKRRWIKGLDGRKVHVRSPHAALNTLLQSAGALICKLWIIKTEEMLVEKGLKHGWDGDFAYMAWVHDEIQVGCRTEEIAQVVIETAQEAMRWVGDHWNFRCLLDTEGKMGPNWAICH
Selectivity for dNTPs over rNTPs [1]: at least 2,000 fold

Source: US20050069907A1, “Methods for using double-mutant RNA polymerases with reduced discrimination between non-canonical and canonical nucleoside triphosphates” (priority 2002, published 2005)
